Structures can show the parent of a compound that is named as a salt. Where two headings read alike, the source gives them in different places.
Key:
[1] = target: T1, SARS-CoV-2 PLpro (nsp3 1564–1878) (Severe acute respiratory syndrome coronavirus 2, UniProt P0DTD1); experiment: biochemical; design: FRET-quenched peptide (Pro3) cleavage by PLpro, 10 min pre-incubation, slope over 20 min, normalised to no-compound control; conditions: low concentration screen, read-out: % of control remaining
[2] = target: T1, SARS-CoV-2 PLpro (nsp3 1564–1878); experiment: biochemical; design: FRET-quenched peptide (Pro3) cleavage by PLpro, 10 min pre-incubation, slope over 20 min, normalised to no-compound control; conditions: high concentration screen, read-out: % of control remaining

With `Clc1ccccc1CN1CCc2sccc2C1` [Ticlopidine (hydrochloride)] the remaining activity at 1.25 µM ([1]; Well no.=6270) was 107%, the remaining activity at 1.25 µM ([1]; Well no.=8213) was 108% and the remaining activity at 3.75 µM ([2]; Well no.=6270) was 109%. The remaining activity at 3.75 µM ([2]; Well no.=8213) was 100%.

For `Clc1ccccc1CN1CCc2sccc2C1` [Ticlopidine], the remaining activity at 1.25 µM ([1]; Well no.=1746) was 92.5% and the remaining activity at 3.75 µM ([2]; Well no.=1746) was 92.5%.

For `COc1ccc2cc(-c3nc(-c4ccc([S+](C)[O-])cc4)[nH]c3-c3ccncc3)ccc2c1` (centres unmarked) [Tie2 kinase inhibitor], the remaining activity at 1.25 µM ([1]; Well no.=4965) was 91% and the remaining activity at 3.75 µM ([2]; Well no.=4965) was 90.7%.

With `O=C(O)COc1ccc(C(=O)c2cccs2)c(Cl)c1Cl` [Tienilic Acid] the remaining activity at 1.25 µM ([1]; Well no.=5851) was 105% and the remaining activity at 3.75 µM ([2]; Well no.=5851) was 102%.

`CN(C)c1cc(NC(=O)CNC(C)(C)C)c(O)c2c1C[C@H]1C[C@H]3[C@H](N(C)C)C(O)=C(C(N)=O)C(=O)[C@@]3(O)C(O)=C1C2=O` [Tigecycline] gave a remaining activity at 1.25 µM ([1]; Well no.=4813) of 99% and a remaining activity at 3.75 µM ([2]; Well no.=4813) of 107%.

For `CC[C@H]1OC(=O)C[C@@H](O)[C@H](C)[C@@H](O[C@@H]2O[C@H](C)[C@@H](O)[C@H](N(C)C)[C@H]2O)[C@@H](CCN2C[C@H](C)C[C@H](C)C2)C[C@@H](C)C(=O)/C=C/C(C)=C/[C@@H]1CO[C@@H]1O[C@H](C)[C@@H](O)[C@@H](OC)[C@H]1OC` [Tilmicosin], the remaining activity at 1.25 µM ([1]; Well no.=4746) was 97.6% and the remaining activity at 3.75 µM ([2]; Well no.=4746) was 96.6%.

For `CCS(=O)(=O)CCn1c([N+](=O)[O-])cnc1C` [Tinidazole], the remaining activity at 1.25 µM ([1]; Well no.=1958) was 93% and the remaining activity at 3.75 µM ([2]; Well no.=1958) was 94.1%.

`Clc1ccc(C(Cn2ccnc2)OCc2ccsc2Cl)c(Cl)c1` (centres unmarked) [Tioconazole] gave a remaining activity at 1.25 µM ([1]; Well no.=1956) of 103% and a remaining activity at 3.75 µM ([2]; Well no.=1956) of 104%.

Molecule `C/N=C(/NC#N)NCCSCc1csc(NC(=N)N)n1` [Tiotidine] has a remaining activity at 1.25 µM ([1]; Well no.=1877) of 98.5% and a remaining activity at 3.75 µM ([2]; Well no.=1877) of 98.9%.

Work on `C[N+]1(C)[C@@H]2C[C@@H](OC(=O)C(O)(c3cccs3)c3cccs3)C[C@H]1[C@@H]1O[C@@H]12` [Tiotropium (Bromide)] yielded a remaining activity at 1.25 µM ([1]; Well no.=7533) of 96.7% and a remaining activity at 3.75 µM ([2]; Well no.=7533) of 95.1%.

In the case of `C[N+]1(C)[C@@H]2C[C@@H](OC(=O)C(O)(c3cccs3)c3cccs3)C[C@H]1[C@@H]1O[C@@H]12` [Tiotropium Bromide hydrate], the remaining activity at 1.25 µM ([1]; Well no.=4912) is reported as 100% and the remaining activity at 3.75 µM ([2]; Well no.=4912) is reported as 95.8%.

Work on `C[N+]1(C)[C@@H]2C[C@@H](OC(=O)C(O)(c3cccs3)c3cccs3)C[C@H]1[C@@H]1O[C@@H]12` [Tiotropium Bromide] yielded a remaining activity at 1.25 µM ([1]; Well no.=2108) of 102% and a remaining activity at 3.75 µM ([2]; Well no.=2108) of 102%.

`O=c1oc2cc(O)ccc2s1` [Tioxolone] showed a remaining activity at 1.25 µM ([1]; Well no.=4952) of 95.3% and a remaining activity at 3.75 µM ([2]; Well no.=4952) of 91.8%.

With `N=C1CCCN1Cc1[nH]c(=O)[nH]c(=O)c1Cl` [Tipiracil hydrochloride] the remaining activity at 1.25 µM ([1]; Well no.=8154) was 95.9% and the remaining activity at 3.75 µM ([2]; Well no.=8154) was 95.8%.

For `O=C(O)C(=O)c1cn(Cc2ccccc2)c2ccc(-c3ccc(OC(F)(F)F)cc3)cc12` [Tiplaxtinin], the remaining activity at 1.25 µM ([1]; Well no.=5648) was 92.2% and the remaining activity at 3.75 µM ([2]; Well no.=5648) was 93.4%.

For `CCCCS(=O)(=O)N[C@@H](Cc1ccc(OCCCCC2CCNCC2)cc1)C(=O)O` [Tirofiban hydrochloride monohydrate], the remaining activity at 1.25 µM ([1]; Well no.=5469) was 95.9% and the remaining activity at 3.75 µM ([2]; Well no.=5469) was 99.6%.

In the case of `COc1cc2nccc(Oc3ccc(NC(=O)Nc4cc(C)on4)c(Cl)c3)c2cc1OC` [Tivozanib], the remaining activity at 1.25 µM ([1]; Well no.=2932) is reported as 96.1% and the remaining activity at 3.75 µM ([2]; Well no.=2932) is reported as 99%.

In the case of `Clc1ccc2nsnc2c1NC1=NCCN1` [Tizanidine (hydrochloride)], the remaining activity at 1.25 µM ([1]; Well no.=6612) is reported as 105% and the remaining activity at 3.75 µM ([2]; Well no.=6612) is reported as 96%.

Work on `Clc1ccc2nsnc2c1NC1=NCCN1` [Tizanidine HCl] yielded a remaining activity at 1.25 µM ([1]; Well no.=4851) of 101% and a remaining activity at 3.75 µM ([2]; Well no.=4851) of 99.7%.

Molecule `Clc1ccc2nsnc2c1NC1=NCCN1` [Tizanidine.HCl] has a remaining activity at 1.25 µM ([1]; Well no.=1563) of 98.4% and a remaining activity at 3.75 µM ([2]; Well no.=1563) of 98%.

For `NC[C@H]1O[C@H](O[C@H]2[C@H](O)[C@@H](O[C@H]3O[C@H](CO)[C@@H](O)[C@H](N)[C@H]3O)[C@H](N)C[C@@H]2N)[C@H](N)C[C@@H]1O` [Tobramycin (free base)], the remaining activity at 1.25 µM ([1]; Well no.=1960) was 96.2% and the remaining activity at 3.75 µM ([2]; Well no.=1960) was 95.9%.

Work on `C[C@@H]1CCN(C(=O)CC#N)C[C@@H]1N(C)c1ncnc2[nH]ccc12` [Tofacitinib citrate] yielded a remaining activity at 1.25 µM ([1]; Well no.=5551) of 98.9% and a remaining activity at 3.75 µM ([2]; Well no.=5551) of 109%.

Work on `CCC1C(C)=NN=C(c2ccc(OC)c(OC)c2)c2cc(OC)c(OC)cc21` (centres unmarked) [Tofisopam] yielded a remaining activity at 1.25 µM ([1]; Well no.=5780) of 103% and a remaining activity at 3.75 µM ([2]; Well no.=5780) of 103%.

`CCc1ccc(Cc2ccc3c(c2)[C@]2(OC3)O[C@H](CO)[C@@H](O)[C@H](O)[C@H]2O)cc1` [Tofogliflozin(CSG 452)] was tested, and the remaining activity at 1.25 µM ([1]; Well no.=8776) was 101% and the remaining activity at 3.75 µM ([2]; Well no.=8776) was 102%.

In the case of `Cc1ccc(S(=O)(=O)NC(=O)NN2CCCCCC2)cc1` [Tolazamide], the remaining activity at 1.25 µM ([1]; Well no.=1523) is reported as 93.9%, the remaining activity at 1.25 µM ([1]; Well no.=1810) is reported as 100% and the remaining activity at 3.75 µM ([2]; Well no.=1523) is reported as 94.7%. It also gave a remaining activity at 3.75 µM ([2]; Well no.=1810) of 93.8%.

`c1ccc(CC2=NCCN2)cc1` [Tolazoline (hydrochloride)] was tested, and the remaining activity at 1.25 µM ([1]; Well no.=6231) was 104% and the remaining activity at 3.75 µM ([2]; Well no.=6231) was 107%.

For `CCCCNC(=O)NS(=O)(=O)c1ccc(C)cc1` [Tolbutamide], the remaining activity at 1.25 µM ([1]; Well no.=1329) was 107%, the remaining activity at 1.25 µM ([1]; Well no.=1601) was 99.7% and the remaining activity at 3.75 µM ([2]; Well no.=1329) was 104%. It also gave a remaining activity at 3.75 µM ([2]; Well no.=1601) of 97.6%.

In the case of `Cc1ccc(C(=O)c2cc(O)c(O)c([N+](=O)[O-])c2)cc1` [Tolcapone], the remaining activity at 1.25 µM ([1]; Well no.=1790) is reported as 97.4% and the remaining activity at 3.75 µM ([2]; Well no.=1790) is reported as 96%.

`Cc1c(Cl)cccc1Nc1ccccc1C(=O)O` [Tolfenamic acid] was tested, and the remaining activity at 1.25 µM ([1]; Well no.=1996) was 97.1% and the remaining activity at 3.75 µM ([2]; Well no.=1996) was 99.1%.

Work on `CCOC(=O)C1=Cc2ccc(C(F)(F)C(F)(F)F)cc2N=C(N)C1` [Toll-like receptor modulator] yielded a remaining activity at 1.25 µM ([1]; Well no.=8077) of 108% and a remaining activity at 3.75 µM ([2]; Well no.=8077) of 95.6%.

Molecule `Cc1ccc(C(=O)c2ccc(CC(=O)O)n2C)cc1` [Tolmetin] has a remaining activity at 1.25 µM ([1]; Well no.=1998) of 101% and a remaining activity at 3.75 µM ([2]; Well no.=1998) of 101%.

`Cc1cccc(N(C)C(=S)Oc2ccc3ccccc3c2)c1` [Tolnaftate] gave a remaining activity at 1.25 µM ([1]; Well no.=4720) of 105% and a remaining activity at 3.75 µM ([2]; Well no.=4720) of 106%.

For `Cc1ccc(C(=O)C(C)CN2CCCCC2)cc1` (centres unmarked) [Tolperisone (hydrochloride)], the remaining activity at 1.25 µM ([1]; Well no.=7498) was 99% and the remaining activity at 3.75 µM ([2]; Well no.=7498) was 100%.

`Cc1ccc(O)c([C@H](CCN(C(C)C)C(C)C)c2ccccc2)c1` [Tolterodine tartrate (Detrol LA)] was tested, and the remaining activity at 1.25 µM ([1]; Well no.=4918) was 98% and the remaining activity at 3.75 µM ([2]; Well no.=4918) was 94.6%.

— PMC8286840, “Identifying SARS-CoV-2 antiviral compounds by screening for small molecule inhibitors of Nsp3 papain-like protease” (Biochemical Journal, 2021)
